According to ChEMBL document CHEMBL5058644, “Data for DCP probe JNJ-39758979” (2022):

Legend:
[1] = molecular target: T1, Histamine H4 receptor (Homo sapiens, UniProt Q9H3N8); test: Cell based cAMP Assays (pA2); settings: read-out: pA2 (converted)
[2] = molecular target: T1, Histamine H4 receptor; test: Binding assay

Kb [1]: > 100 µM (not active)
Ki [2]: > 10 µM (not active)
SMILES: CN[C@@H]1CCN(c2cc(C(F)(F)F)nc(N)n2)C1
